ChEMBL document CHEMBL1201862, “PubChem BioAssay data set” (2004)
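Cells were grown in 96-well plates and exposed to each compound for 48 hours at five concentrations; endpoints were interpolated linearly between bracketing concentrations, or set to the highest concentration if not reached. GI50 is the concentration that inhibits growth by half.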 Calls of active or inactive are those of the source. Rule as the data show it: active = GI50 up to about 1.1 µM and inactive = higher.

Columns and labels:
Assay in all cases: inhibition of tumour cell growth, NCI panel, 48 h
SF-295 = test system: SF-295
SK-OV-3 = test system: SK-OV-3
HCT-116 = test system: HCT-116
TK-10 = test system: TK-10
NCI-H460 = test system: NCI-H460
MDA-MB-231 = test system: MDA-MB-231
NCI-H522 = test system: NCI-H522
EKVX = test system: EKVX
UO-31 = test system: UO-31
LOX IMVI = test system: LOX IMVI
OVCAR-4 = test system: OVCAR-4
NCI-H23 = test system: NCI-H23
OVCAR-8 = test system: OVCAR-8
KM12 = test system: KM12
MDA-MB-435 = test system: MDA-MB-435
SK-MEL-2 = test system: SK-MEL-2
IGROV-1 = test system: IGROV-1
CCRF-CEM = test system: CCRF-CEM
MCF7 = test system: MCF7
PC-3 = test system: PC-3
Hs-578T = test system: Hs-578T
SR = test system: SR
A549 = test system: A549
COLO 205 = test system: COLO 205
NCI-H226 = test system: NCI-H226
NCI/ADR-RES = test system: NCI/ADR-RES
HCT-15 = test system: HCT-15
CAKI-1 = test system: CAKI-1
BT-549 = test system: BT-549
SW-620 = test system: SW-620
MDA-N = test system: MDA-N
SF-268 = test system: SF-268
SK-MEL-28 = test system: SK-MEL-28
HOP-62 = test system: HOP-62
DU-145 = test system: DU-145
U-251 = test system: U-251
OVCAR-3 = test system: OVCAR-3
UACC-257 = test system: UACC-257
K562 = test system: K562
OVCAR-5 = test system: OVCAR-5
SNB-19 = test system: SNB-19
SK-MEL-5 = test system: SK-MEL-5
M14 = test system: M14
A498 = test system: A498
SF-539 = test system: SF-539
RPMI-8226 = test system: RPMI-8226
SN12C = test system: SN12C
MOLT-4 = test system: MOLT-4
HT-29 = test system: HT-29
HL-60 = test system: HL-60
SNB-75 = test system: SNB-75
HCC 2998 = test system: HCC 2998
RXF 393 = test system: RXF 393
786-0 = test system: 786-0
ACHN = test system: ACHN
T47D = test system: T47D
HOP-92 = test system: HOP-92
UACC-62 = test system: UACC-62
Malme-3M = test system: Malme-3M
KM-20L2 = test system: KM-20L2
DMS-114 = test system: DMS-114
LXFL 529 = test system: LXFL 529
M19-MEL = test system: M19-MEL
SNB-78 = test system: SNB-78

SMILES: C=C(C)C(=O)OC1C[C@H](COC(C)=O)C2CC=C(C)C2C2OC(=O)C(=C)[C@H]12 (stereo not given in full)
- GI50 (SF-295): 17.1 µM (inactive)
- GI50 (SK-OV-3): 17.2 µM (inactive)
- GI50 (HCT-116): 1.67 µM (inactive)
- GI50 (TK-10): 6.76 µM (inactive)
- GI50 (NCI-H460): 15 µM (inactive)
- GI50 (MDA-MB-231): 4.3 µM (inactive)
- GI50 (NCI-H522): 1.45 µM (inactive)
- GI50 (EKVX): 9.82 µM (inactive)
- GI50 (UO-31): 2.2 µM (inactive)
- GI50 (LOX IMVI): 1.85 µM (inactive)
- GI50 (OVCAR-4): 1.74 µM (inactive)
- GI50 (NCI-H23): 4.26 µM (inactive)
- GI50 (OVCAR-8): 5.31 µM (inactive)
- GI50 (KM12): 11.7 µM (inactive)
- GI50 (MDA-MB-435): 3.33 µM (inactive)
- GI50 (SK-MEL-2): 2.82 µM (inactive)
- GI50 (IGROV-1): 11.7 µM (inactive)
- GI50 (CCRF-CEM): 1.64 µM (inactive)
- GI50 (MCF7): 4.11 µM (inactive)
- GI50 (PC-3): 7.24 µM (inactive)
- GI50 (Hs-578T): 4.06 µM (inactive)
- GI50 (SR): 2.06 µM (inactive)
- GI50 (A549): 17 µM (inactive)
- GI50 (COLO 205): 2.54 µM (inactive)
- GI50 (NCI-H226): 17.3 µM (inactive)
- GI50 (NCI/ADR-RES): 2.18 µM (inactive)
- GI50 (HCT-15): 1.91 µM
- GI50 (CAKI-1): 2.81 µM (inactive)
- GI50 (BT-549): 4.13 µM (inactive)
- GI50 (SW-620): 2.23 µM (inactive)
- GI50 (MDA-N): 3.66 µM (inactive)
- GI50 (SF-268): 2.4 µM (inactive)
- GI50 (SK-MEL-28): 2.41 µM (inactive)
- GI50 (HOP-62): 13.3 µM (inactive)
- GI50 (DU-145): 6.19 µM (inactive)
- GI50 (U-251): 8.67 µM (inactive)
- GI50 (OVCAR-3): 2.19 µM (inactive)
- GI50 (UACC-257): 4.09 µM (inactive)
- GI50 (K562): 1.87 µM (inactive)
- GI50 (OVCAR-5): 9.77 µM (inactive)
- GI50 (SNB-19): 16.9 µM (inactive)
- GI50 (SK-MEL-5): 7.5 µM (inactive)
- GI50 (M14): 2.07 µM (inactive)
- GI50 (A498): 14.3 µM (inactive)
- GI50 (SF-539): 4.59 µM (inactive)
- GI50 (RPMI-8226): 0.525 µM (active)
- GI50 (SN12C): 4.97 µM (inactive)
- GI50 (MOLT-4): 1.72 µM (inactive)
- GI50 (HT-29): 4.25 µM (inactive)
- GI50 (HL-60): 0.815 µM (active)
- GI50 (SNB-75): 10.8 µM (inactive)
- GI50 (HCC 2998): 12.2 µM (inactive)
- GI50 (RXF 393): 3.81 µM (inactive)
- GI50 (786-0): 2.98 µM (inactive)
- GI50 (ACHN): 3.69 µM (inactive)
- GI50 (T47D): 4.98 µM (inactive)
- GI50 (HOP-92): 1.92 µM (inactive)
- GI50 (UACC-62): 4.54 µM (inactive)
- GI50 (Malme-3M): 1.55 µM (inactive)

SMILES: COc1cc2c(cc1OC)C1C(=O)c3c(O)cc4c(c3OC1CO2)C=CC(C)(C)O4 (stereo not given)
- GI50 (KM-20L2): 29.5 µM (inactive)
- GI50 (DMS-114): 0.366 µM (active)
- GI50 (SK-OV-3): 22.3 µM (inactive)
- GI50 (HCT-116): 10.9 µM (inactive)
- GI50 (TK-10): 32.8 µM (inactive)
- GI50 (NCI-H460): 20.8 µM (inactive)
- GI50 (NCI-H522): 1.28 µM (inactive)
- GI50 (UO-31): 3.01 µM (inactive)
- GI50 (LOX IMVI): 5.89 µM (inactive)
- GI50 (KM12): 9.44 µM (inactive)
- GI50 (SK-MEL-2): 18.8 µM (inactive)
- GI50 (LXFL 529): 7.03 µM (inactive)
- GI50 (IGROV-1): 19 µM (inactive)
- GI50 (SR): > 100 µM (inactive)
- GI50 (A549): 2.25 µM (inactive)
- GI50 (HCT-15): 19.1 µM
- GI50 (CAKI-1): 21.7 µM (inactive)
- GI50 (SW-620): 23.5 µM (inactive)
- GI50 (SF-268): 27.6 µM (inactive)
- GI50 (SK-MEL-28): 35.6 µM (inactive)
- GI50 (HOP-62): 14.8 µM (inactive)
- GI50 (U-251): 12.3 µM (inactive)
- GI50 (OVCAR-3): 13.5 µM (inactive)
- GI50 (OVCAR-5): 84.1 µM (inactive)
- GI50 (SK-MEL-5): 1.17 µM (inactive)
- GI50 (M14): 23.5 µM (inactive)
- GI50 (A498): 21.6 µM (inactive)
- GI50 (SF-539): 18.2 µM (inactive)
- GI50 (SN12C): 27.2 µM (inactive)
- GI50 (M19-MEL): 13.8 µM (inactive)
- GI50 (HT-29): 27.8 µM (inactive)
- GI50 (SNB-75): 26.7 µM (inactive)
- GI50 (ACHN): 0.748 µM (active)
- GI50 (SNB-78): 31.9 µM (inactive)
- GI50 (HOP-92): 18.2 µM (inactive)
- GI50 (UACC-62): 12.9 µM (inactive)
- GI50 (Malme-3M): 20.6 µM (inactive)

SMILES: O=C1Sc2ccc(Br)cc2C(=O)Sc2ccccc21
- GI50 (SF-295): 22.4 µM (inactive)
- GI50 (SK-OV-3): 27.4 µM (inactive)
- GI50 (HCT-116): 13 µM (inactive)
- GI50 (TK-10): 17.9 µM (inactive)
- GI50 (NCI-H460): 15.8 µM (inactive)
- GI50 (MDA-MB-231): 16.5 µM (inactive)
- GI50 (NCI-H522): 4.84 µM (inactive)
- GI50 (EKVX): 8.02 µM (inactive)
- GI50 (UO-31): 12.9 µM (inactive)
- GI50 (LOX IMVI): 9.1 µM (inactive)
- GI50 (OVCAR-4): 13.2 µM (inactive)
- GI50 (NCI-H23): 15.7 µM (inactive)
- GI50 (OVCAR-8): 9.84 µM (inactive)
- GI50 (KM12): 16 µM (inactive)
- GI50 (MDA-MB-435): 7.91 µM (inactive)
- GI50 (SK-MEL-2): 18.8 µM (inactive)
- GI50 (IGROV-1): 14.2 µM (inactive)
- GI50 (CCRF-CEM): 2.48 µM (inactive)
- GI50 (MCF7): 16.4 µM (inactive)
- GI50 (PC-3): 13 µM (inactive)
- GI50 (Hs-578T): 11.4 µM (inactive)
- GI50 (SR): 1.06 µM (active)
- GI50 (A549): 27.1 µM (inactive)
- GI50 (COLO 205): 13.2 µM (inactive)
- GI50 (NCI-H226): 18.5 µM (inactive)
- GI50 (NCI/ADR-RES): 16 µM (inactive)
- GI50 (HCT-15): 15.7 µM
- GI50 (CAKI-1): 14.6 µM (inactive)
- GI50 (BT-549): 12.5 µM (inactive)
- GI50 (SW-620): 17.9 µM (inactive)
- GI50 (MDA-N): 8.17 µM (inactive)
- GI50 (SF-268): 7.08 µM (inactive)
- GI50 (SK-MEL-28): 19.5 µM (inactive)
- GI50 (HOP-62): 12.6 µM (inactive)
- GI50 (DU-145): 11.8 µM (inactive)
- GI50 (U-251): 14.5 µM (inactive)
- GI50 (OVCAR-3): 12.5 µM (inactive)
- GI50 (UACC-257): 13.8 µM (inactive)
- GI50 (K562): 12.8 µM (inactive)
- GI50 (OVCAR-5): 17.9 µM (inactive)
- GI50 (SNB-19): 13.9 µM (inactive)
- GI50 (SK-MEL-5): 14.4 µM (inactive)
- GI50 (M14): 11.4 µM (inactive)
- GI50 (A498): 20.9 µM (inactive)
- GI50 (SF-539): 11.6 µM (inactive)
- GI50 (RPMI-8226): 3.33 µM (inactive)
- GI50 (SN12C): 14.5 µM (inactive)
- GI50 (MOLT-4): 4.34 µM (inactive)
- GI50 (HT-29): 14.3 µM (inactive)
- GI50 (HL-60): 2.42 µM (inactive)
- GI50 (SNB-75): 12.5 µM (inactive)
- GI50 (HCC 2998): 14.5 µM (inactive)
- GI50 (RXF 393): 4.56 µM (inactive)
- GI50 (786-0): 11 µM (inactive)
- GI50 (ACHN): 16.4 µM (inactive)
- GI50 (T47D): 9.29 µM (inactive)
- GI50 (HOP-92): 13.5 µM (inactive)
- GI50 (UACC-62): 16.8 µM (inactive)
- GI50 (Malme-3M): 2.24 µM (inactive)
